Numbered stars: 1 amine (or outer) side, 2 acyl side, 3 side chain; on linkers, the order of the positions; unused ones are H or OH. Bridge positions count the residues as written; N and C are the ends. Peptide text beside a SMILES is read from it. I, II: the chains in the order shown. Rhodamine110 = O=C1OC2(c3ccc(N[*:1])cc3Oc3cc(N[*:2])ccc32)c2ccccc21
System: enzyme
Test: Effect of dithioerythritol (DTE) on substrate sensitivity
Details: dithioerythritol (DTE) at 1 mM
Description: Modulators are components used to […] the sensitivity of the enzyme for the leaving group. The modulators speed up or slow down the activity of an enzyme by changing the active site. […] Preferred modulators for particular enzymes are included in Table 1.

Row | SMILES | effect of DTE on sensitivity
1 | NC(=O)CC[C@H](N)C(=O)N[C@@H](CO)C(=O)Nc1ccc2c(c1)Oc1cc(NC(=O)[C@H](CO)NC(=O)[C@@H](N)CCC(N)=O)ccc1C21OC(=O)c2ccccc21 (relative stereo) [GLN-SER*] | decreases the sensitivity
2 | C[C@H](N)C(=O)N[C@@H](C)C(=O)Nc1ccc2c(c1)Oc1cc(NC(=O)[C@H](C)NC(=O)[C@H](C)N)ccc1C21OC(=O)c2ccccc21 [ALA-ALA*] | decreases the sensitivity
3 | C[C@H](N)C(=O)N[C@@H](C)C(=O)N[C@@H](C)C(=O)N[C@@H](C)C(=O)Nc1ccc2c(c1)Oc1cc(NC(=O)[C@H](C)NC(=O)[C@H](C)NC(=O)[C@H](C)NC(=O)[C@H](C)N)ccc1C21OC(=O)c2ccccc21 [Ala-Ala-Ala-Ala, (H--L Ala--Ala--Ala--Ala)2 Rho 110-2TFA] (I: H-AAAA / II: H-AAAA; linker I:C-II:C via Rhodamine110) | decreases the sensitivity
4 | C[C@H](N)C(=O)NCC(=O)Nc1ccc2c(c1)Oc1cc(NC(=O)CNC(=O)[C@H](C)N)ccc1C21OC(=O)c2ccccc21 [Ala-Gly] | does not change the sensitivity
